{
  "source": "paper PMC7870638",
  "about": "“Toxicity of anticancer drugs in human placental tissue explants and trophoblast cell lines” (Archives of Toxicology, 2020)",
  "key": {"[1]": {"test_system": "JEG-3, BeWo, and syncytialised BeWo cells", "assay": "MTT assay, cell viability in all three trophoblast cell types", "type": "cell-based, human", "experimental": "Two human choriocarcinoma-derived placental cell lines were used: JEG3 and BeWo (ATCC catalog numbers HTB-36 and CCL-98, respectively). JEG3 cells were cultured in DMEM and Bewo cells in Ham’s F-12 K medium, supplemented with 10% fetal calf serum and 1% penicillin and streptomycin under a humidified 5% CO2/95% air atmosphere at 37 °C. Cells were passaged (JEG3: 1:10 twice a week; BeWo: 1:3 once a week) after trypsinization with 0.05% Trypsin–EDTA when cells reached approximately 80% confluency. For BeWo cells, the medium was renewed 3 times a week. To create syncytialised BeWo cells, regular BeWo cells were treated with 50 μM forskolin (Sigma-Aldrich, St. Louis, MO, USA) in 0.1% DMSO, to initiate syncytialisation. As forskolin increases the intracellular cAMP levels, it activates protein kinase A after which syncytialisation and fusion of trophoblasts occurs (Orendi et al. [2010]).\nThe cells were seeded in 96-well culture plates at a cell density of 1 × 10^4 cells/well and cultured for 24 h at 37 °C in a humidified atmosphere with 5% CO2 to allow for attachment. Subsequently, the cells were exposed to the TKIs and cytostatic drugs in concentrations ranging from 100 pM to 100 µM (triplicate). […] This is a minimum percentage DMSO, but required as cells required co-incubation with forskolin to syncytialise. Crizotinib 100 μM was used as positive control. After attachment, cells were incubated with the compounds for 48 h, after which the medium was removed and the cells were exposed to […] diluted in medium. After 3 h of incubation with MTT, the formazan crystals formed were solubilized in 50 μL DMSO. The absorbance of formazan was measured at 540 nm by a Biorad Multiwell Plate reader."}, "[2]": {"test_system": "progesterone and estrone release in placental explants", "assay": "Steroid (progesterone, estrone) release in placental explants, LC-MS/MS of culture medium", "type": "cell-based, human", "settings": "placental explants, 1, 10 and 100 µM, after 24 h", "experimental": "(§1) Term placentas, obtained from consenting women following uncomplicated pregnancies and delivered vaginally or by caesarean section, were used for all experiments. Approval of the Regional Committee on Research involving Human Subjects was obtained (File 2014-1397). Within 60 min after delivery, 1 cm^3 villous tissue samples were excised at random areas midway between the umbilical cord and distal edge of the placenta. To remove maternal blood, samples were carefully rinsed in sterile Dulbecco’s phosphate-buffered saline supplemented with calcium chloride and magnesium chloride (Sigma-Aldrich, St. Louis, MO, USA) which was kept at 37 °C. The villous tissue was cut into small pieces weighing approximately 5 mg, after which 4–6 pieces of tissue were cultured together in individual wells of a 6-well plate. The explants were cultured in 1.5 ml of RPMI-1640 culture medium (Gibco, USA) with 15% heat-inactivated fetal bovine serum, 1% penicillin streptomycin, 1% gentamicin, and 1% amphotericin B (Life Technologies, USA). Placental explant cultures were kept for 7 days at 37 °C in a humidified gas mixture of 5% CO2 and 95% air. The culture medium was renewed every 24 h.\nTreatment with TKIs or cytostatic drugs was started at day four of culture to allow for the syncytiotrophoblasts to regenerate (Siman et al. [2001]). Explants were then incubated for 72 h with 1, 10 or 100 µM of all TKIs or cytostatic drugs mentioned above. […] For cisplatin and carboplatin, culture medium was used as a solvent. Culture medium was replaced every 24 h with new medium containing the original concentration of the drug. Supernatant was collected each day and stored at − 20 °C for hormone quantification.\nProgesterone and estrone concentrations in culture medium were determined by LC–MS/MS analysis using an Acquity UPLC (Waters, Milford, MA, USA) equipped with a C18 UPLC column (Acquity UPLC BEH C18, 2.1 × 50 mm, Milford, MA, USA, Waters) coupled to a Xevo TQ-S (Waters) triple quadrupole mass spectrometer. Progesterone-D9 was used as internal standard and calibration curves were made in the matrix. To precipitate proteins, methanol containing the internal standard was added to culture medium samples in a ratio 3:1 (MeOH:medium). Following subsequent centrifugation (13,000g for 3 min), 1 μl of the clear supernatant was injected into the LC–MS to quantify progesterone and estrone. Solvent A consisted of 0.2 mM NH4F in water and solvent B consisted of 0.2 mM NH4F in Acetonitrile:Methanol in a ratio of 75:25%. Separation was performed at a flow rate of 350 µl/min under the following gradient conditions: 0 min 60% eluent A, 3.0 min 0% eluent A, 4 min 0% eluent A, 5 min 60% eluent A. The effluent from the UPLC was passed directly into the electrospray ion source. Positive electrospray ionization was achieved using nitrogen as a desolation gas with ionization voltage at 600 V. The source temperature was set at 500 °C and argon was used as collision gas. The following SRM transitions were used: m/z 315.10 (parent ion) to m/z 69.9 and m/z 108.9 (both product ions) for progesterone, m/z 269.0 (parent ion) to m/z 144.9 and 158.9 (product ions) for estrone, and m/z 324.2 (parent ion) to m/z 99.9 and m/z 112.9 (product ions) for the internal standard d9-progesterone. We also attempted to quantify estradiol and estriol levels in the culture medium of both explants and cells, but these were below the detection limit.\nConstruction of graphs and data analysis were performed using Graphpad Prism version 8.4.2. MTT conversion and progesterone and estrone release in placental explants were normalized to tissue wet weight. To compare the effects on tissue viability and cell viability, the data were normalized to control conditions and mean differences were tested using an unpaired t test, a one-way ANOVA, or a two-way repeated measures ANOVA. […]"}, "[3]": {"test_system": "BeWo cells", "set-up": "method as in Soininen et al. [2015]", "settings": "after 4 h of exposure, ref Soininen et al. [2015], read-out: IC50 cell viability; cited from earlier work"}, "[4]": {"assay": "MTT assay in placental explants (tissue viability)", "type": "cell-based, human", "settings": "female, human, term placental villous tissue explants, 72 h exposure", "experimental": "as §1\nTreatment with TKIs or cytostatic drugs was started at day four of culture to allow for the syncytiotrophoblasts to regenerate (Siman et al. [2001]). Explants were then incubated for 72 h with 1, 10 or 100 µM of all TKIs or cytostatic drugs mentioned above. […] Culture medium was replaced every 24 h with new medium containing the original concentration of the drug. Supernatant was collected each day and stored at − 20 °C for hormone quantification.\nTo evaluate tissue and cell viability, after 72 h of drug exposure, tissue explants were incubated for 4 h at 37 °C with 1 mM 3-(4,5-dimethylthiazol-2-yl)-[…] (MTT) in RPMI. After incubation, the medium was removed, the tissue in each well was weighed, and the explants were subsequently placed in 500 µL DMSO for 10 min to dissolve the formazan formed. After 10 min, the DMSO was transferred to a 96-well plate and absorbance was measured at 540 nm using a Biorad Multiwell Plate reader.\nConstruction of graphs and data analysis were performed using Graphpad Prism version 8.4.2. MTT conversion and progesterone and estrone release in placental explants were normalized to tissue wet weight. To compare the effects on tissue viability and cell viability, the data were normalized to control conditions and mean differences were tested using an unpaired t test, a one-way ANOVA, or a two-way repeated measures ANOVA. The change in progesterone release rate as compared to the baseline (at 0 h) was calculated for each well separately, after which data were normalized to control conditions. One-way ANOVA was used to assess effects at the 72 h time point only. The Bonferroni post hoc test was applied to compare treatment conditions with controls. Data are described as mean ± SD in Figs. 2 and 3 and as mean ± SEM in all other figures where comparisons of means between groups were made. The mean and SD or SEM were calculated from all individual results (three experiments performed in duplicate or triplicate wells, n = 6 or n = 9)."}, "[5]": {"set-up": "method as in Berveiller and Mir [2012]; Soininen et al. [2015]", "settings": "ref Berveiller and Mir [2012]; Soininen et al. [2015]; cited from earlier work"}},
  "data": [
    {"smiles": "COc1cccc2c1C(=O)c1c(O)c3c(c(O)c1C2=O)C[C@@](O)(C(=O)CO)C[C@@H]3O[C@H]1C[C@H](N)[C@H](O)[C@H](C)O1", "note": "[doxorubicin]", "values": [
      {"measurement": "potency on viability in cells relative to explants (times more potent)", "setting": "[1]; all cell types (48 h) versus placental explants (72 h)", "result": "approximately 10 times"},
      {"measurement": "effect on viability (in words)", "setting": "[1]; all cell types, 1 µM, 48 h exposure", "result": "fully inhibited viability in all cell types"},
      {"measurement": "progesterone production (in words)", "setting": "[2]", "result": "induced progesterone production"},
      {"measurement": "IC50", "setting": "[3]", "result": 600, "unit": "nM"},
      {"measurement": "viability at 72 h, 1 µM", "setting": "[4]; 1 µM, read-out: viability in explants, % of control values", "result": "83 ± 7", "unit": "%"},
      {"measurement": "viability at 72 h, 100 µM", "setting": "[4]; 100 µM, mean ± SEM, read-out: tissue viability, % of control", "result": "14 ± 2", "unit": "%"},
      {"measurement": "uptake in ex vivo perfused placental tissue, % of initial maternal concentrations", "setting": "[5]", "result": "38–70%"}
    ]}
  ]
}
